# Key:
# CDK1/Cyclin B1 = CDK1/Cyclin B1 (Homo sapiens (Human), UniProt P06493); experiment: CDK1/Cyclin B1 ADP-Glo Kinase Assay; format: biochemical; conditions: 80 uM ATP
# Experimental: CDK1/Cyclin B1 ADP-Glo Kinase Assay
# (§1) The purpose of CDK1/Cyclin B1 assay is to evaluate the inhibition (% inhibition and IC50 values) of small molecule inhibitors by using a Luminescent based ADP-Glo assay. CDK1/Cyclin B1 catalyzes the production of ADP from ATP. ADP-Glo assay monitors ADP producing biochemical reactions. ADP-Glo is performed in 2 steps upon completion of kinase reaction: a combined termination of kinase reaction and depletion of remaining ATP in the first step, and conversion of generated ADP to ATP and the newly produced ATP to light output using luciferase/luciferin reaction in the second step. The luminescent signal generated is proportional to the ADP concentration produced and is correlated with the kinase activity. CDK1/Cyclin B1 was purchased from Carna (Cat 04-102). Typical reaction solutions (10 uL final reaction volume) contained 2% DMSO (f inhibitor), 10 mM MgCl2, 1 mM EGTA, 0.05% BSA, 2 mM DTT, 80 uM ATP (ATP Km=78.6 uM), 0.01% Brig-35, 0.75 uM substrate, and 4.917 nM CDK1/Cyclin Bl enzyme complex in 50 mM HEPES buffer at pH 7.5. The assay was initiated with the addition of ATP-containing substrate solution, following a 30-minute pre-incubation of enzyme and inhibitor at room temperature in the reaction mixture. The reaction was stopped after 90 minutes at room temperature by the addition of 10 uL of ADP-GLO Reagent. After a 90 minute incubation, 20 uL of Kinase Detection Reagent was added. Samples were incubated for 40 minutes, after which plate well luminescence was measured on a Envision microplate reader. The IC50 determinations were made from a plot of the fractional velocity as a function of inhibitor concentration fit to the 4 parameters IC50 equation.
# [1] = target: CDK2/Cyclin E1 full length (Homo sapiens (Human), UniProt P24941); experiment: CDK2/Cyclin E1 Full Length ADP-Glo Kinase Assay; format: biochemical; conditions: 20 uM ATP, read-out: CDK2/ CyclinE1 IC50
# Experimental: CDK2/Cyclin E1 Full Length ADP-Glo Kinase Assay
# The purpose of CDK2/Cyclin E1 assay is to evaluate the inhibition (% inhibition and IC50 values) of small molecule inhibitors by using a Luminescent based ADP-Glo assay. CDK2/Cyclin E1 full length catalyzes the production of ADP from ATP. ADP-Glo assay monitors ADP producing biochemical reactions. ADP-Glo is performed in 2 steps upon completion of kinase reaction: a combined termination of kinase reaction and depletion of remaining ATP in the first step, and conversion of generated ADP to ATP and the newly produced ATP to light output using luciferase/luciferin reaction in the second step. The luminescent signal generated is proportional to the ADP concentration produced and is correlated with the kinase activity. CDK2/Cyclin E1 was purchased from Eurofins (Cat 14-475M). Typical reaction solutions (10 uL final reaction volume) contained 2% DMSO (f inhibitor), 10 mM MgCI2, 1 mM EGTA, 0.05% BSA, 2 mM DTT, 20 uM ATP (ATP Km=64.78 uM), 0.01% Brig-35, 0.75 uM substrate, and 0.328 nM wild-type full length CDK2/Cyclin E1 enzyme complex in 50 mM HEPES buffer at pH 7.5. The assay was initiated with the addition of ATP-containing substrate solution, following a 30-minute pre-incubation of enzyme and inhibitor at room temperature in the reaction mixture. The reaction was stopped after 90 minutes at room temperature by the addition of 10 uL of ADP-GLO Reagent. After a 90 minute incubation, 20 uL of Kinase Detection Reagent was added. Samples were incubated for 40 minutes, after which plate well luminescence was measured on a Envision microplate reader. The IC50 determinations were made from a plot of the fractional velocity as a function of inhibitor concentration fit to the 4 parameters IC50 equation.
# CDK4/Cyclin D1 = CDK4/Cyclin D1 (Homo sapiens (Human), UniProt P11802); experiment: CDK4/Cyclin D1 CHEF Assay (AQT0258 peptide); format: biochemical; conditions: 200 uM ATP, read-out: CDK4/ CyclinD1 AQT IC50
# Text: CDK4/Cyclin D1 CHEF Assay
# The purpose of CDK4/Cyclin Dl assay is to evaluate the inhibition (% inhibition and IC50 values) of small molecule inhibitors by using a Chelation-Enhance Fluorescence (CHEF) assay. In a CHEF assay, phosphorylation of a peptide substrate results in proportional increase in fluorescence. CHEF kinase assay use peptide substrates containing a synthetic alpha-amino acid with a side chain bearing an 8-hydroxyquinoline derivative (sulfonamido-oxide, Sox). Upon phosphorylation of a nearby serine, threonine or tyrosine and in the presence of Mg(II), the spectral properties of the Sox residue are altered, emitting 485 nm wavelength light when excited with a 360 nm wavelength light source. CDK4/Cyclin D1 catalyzes the phosphoryl transfer to the SOX-labeled substrate peptide AQT0258 from Assayquant Technologies. Typical reaction solutions contained 2% DMSO (+/−inhibitor), 10 mM MgCl2, 1 mM DTT, 200 uM ATP (ATP Km=195.2 uM), 0.012% Brig-35, 10 uM AQT0258 peptide, 0.02% BSA, 1% Glycerol, 0.55 mM EGTA, 2.5 nM CDK4/Cyclin D1 in 54 mM HEPES buffer at pH 7.5. The reaction was initiated with the addition of substrate solution, following a 30-minute pre-incubation of enzyme and inhibitor at 22° C. in the reaction mix. Reactions were allowed to proceed for 3 hrs at 22° C., followed by fluorescence read of the reaction. The IC50 determinations were made from a plot of the fractional velocity as a function of inhibitor concentration fit to the 4 parameters IC50 equation.
# CDK6/Cyclin D3 = CDK6/Cyclin D3 (Homo sapiens (Human), UniProt Q00534); experiment: CDK6/Cyclin D3 ADP-Glo Kinase Assay; format: biochemical; conditions: 100 uM ATP, read-out: CDK6/ CyclinD3 IC50
# Experimental: CDK6/Cyclin D3 ADP-Glo Kinase Assay
# as §1, with “of the CDK6/Cyclin D3” for “of CDK1/Cyclin B1”, “values) in the presence” for “values)”, “assay. CDK6/Cyclin D3” for “assay. CDK1/Cyclin B1”, “activity. CDK6/Cyclin D3” for “activity. CDK1/Cyclin B1”, “from Carna. […]” for “from Carna (Cat 04-102). Typical reaction solutions (10 uL final reaction volume) contained 2% DMSO (f inhibitor), 10 mM MgCl2, 1 mM EGTA, 0.05% BSA, 2 mM DTT, 80 uM ATP (ATP Km=78.6 uM), 0.01% Brig-35, 0.75 uM substrate, and 4.917 nM CDK1/Cyclin Bl enzyme complex in 50 mM HEPES buffer at pH 7.5.”, “a 90-minute” for “a 90 minute”
# MCF-7 cells = experiment: Cell Growth Inhibition, MCF-7 (CellTiterGlo, 6 days); format: cell-based; conditions: MCF-7, 6-day treatment, CellTiterGlo 2.0
# Text: (§2) MCF-7 and OVCAR-3 cells were used to evaluate the anti-proliferation activity of the CDK inhibitors. MCF-7 (ATCC, HTB-22) cells are epithelial cells from a patient with ER+ metastatic adenocarcinoma. OVCAR-3 (ATCC, HTB-161) cells were derived from malignant ascites of a patient with ovarian cancer and are known to have CCNE1 amplification. Both cell lines were maintained in RPMI media supplemented with 10% fetal bovine serum. For cell growth inhibition assay, CDK inhibitors in DMSO solution were dispensed with either Echo 655 (Beckman Coulter) or Tecan D300e (HP) into 384-well plates (Corning #3765) and the 384-well plates were UV-sterilized prior to the assay. The inhibitors were typically tested in the 10-10,000 nM concentration range with half-log serial dilutions. MCF-7 or OVCAR-3 (500 cells/30 μL/well) were added to each well using Multidrop Combi (ThermoFisher) using standard cassettes. The assay plates with cells were cultured at 37° C., 5% CO2 for 6 days. At the end of the 6-day treatment, 30 μL of CellTiterGlo 2.0 (Promega) was added to each well and the luminescent signal was read using CLARIOstar plus (BMG). The percentage of cell growth inhibition (% CGI) was calculated using the following formula % CGI=100−100×luminescencesample/luminescencecontrol. The half maximal inhibitory concentration (IC50) was determined by nonlinear curve fitting (four parameters, variable slope).
# OVCAR-3 cells = experiment: Cell Growth Inhibition, OVCAR-3 (CellTiterGlo, 6 days); format: cell-based; conditions: OVCAR-3, 6-day treatment, CellTiterGlo 2.0
# Text: as §2
# Chain of CDK4/Cyclin D1 (P11802 whole entry): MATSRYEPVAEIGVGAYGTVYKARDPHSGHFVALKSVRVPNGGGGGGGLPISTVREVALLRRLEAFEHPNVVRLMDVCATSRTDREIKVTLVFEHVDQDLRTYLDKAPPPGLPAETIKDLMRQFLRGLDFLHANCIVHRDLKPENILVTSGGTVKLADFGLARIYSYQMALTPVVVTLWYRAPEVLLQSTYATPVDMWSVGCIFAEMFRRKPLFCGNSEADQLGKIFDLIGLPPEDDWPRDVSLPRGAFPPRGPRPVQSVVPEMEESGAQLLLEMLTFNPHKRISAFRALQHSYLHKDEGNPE
# Chain of CDK4/Cyclin D1 (P24385 whole entry partner): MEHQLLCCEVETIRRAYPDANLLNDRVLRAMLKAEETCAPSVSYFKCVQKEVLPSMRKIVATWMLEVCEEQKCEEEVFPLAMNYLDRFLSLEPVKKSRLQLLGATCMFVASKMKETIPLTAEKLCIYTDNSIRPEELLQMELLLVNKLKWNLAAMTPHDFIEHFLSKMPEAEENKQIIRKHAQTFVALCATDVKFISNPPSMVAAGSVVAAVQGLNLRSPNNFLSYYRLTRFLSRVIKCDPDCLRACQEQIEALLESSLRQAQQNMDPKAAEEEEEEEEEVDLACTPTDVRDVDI
# Chain of CDK1/Cyclin B1 (P06493 whole entry): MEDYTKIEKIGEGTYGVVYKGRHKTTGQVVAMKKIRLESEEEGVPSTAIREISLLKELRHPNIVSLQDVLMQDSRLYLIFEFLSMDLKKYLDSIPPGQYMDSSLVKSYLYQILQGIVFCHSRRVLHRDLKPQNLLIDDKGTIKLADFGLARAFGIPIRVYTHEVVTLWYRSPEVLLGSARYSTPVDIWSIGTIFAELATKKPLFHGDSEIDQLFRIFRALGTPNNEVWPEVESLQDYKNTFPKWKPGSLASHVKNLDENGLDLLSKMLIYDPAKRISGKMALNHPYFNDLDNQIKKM
# Chain of CDK1/Cyclin B1 (P14635 whole entry partner): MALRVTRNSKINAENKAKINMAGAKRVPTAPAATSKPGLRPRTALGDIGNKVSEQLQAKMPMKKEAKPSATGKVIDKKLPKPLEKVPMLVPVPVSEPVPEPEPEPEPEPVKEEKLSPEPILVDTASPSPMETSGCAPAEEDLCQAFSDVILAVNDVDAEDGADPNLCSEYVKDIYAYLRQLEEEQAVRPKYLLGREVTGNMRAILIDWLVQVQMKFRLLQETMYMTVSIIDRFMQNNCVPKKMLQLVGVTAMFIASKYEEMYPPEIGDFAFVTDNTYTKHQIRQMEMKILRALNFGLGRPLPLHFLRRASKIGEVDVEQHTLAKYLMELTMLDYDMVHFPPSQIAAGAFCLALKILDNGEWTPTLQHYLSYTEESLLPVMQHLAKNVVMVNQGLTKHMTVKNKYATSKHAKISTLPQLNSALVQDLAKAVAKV
# Chain of CDK6/Cyclin D3 (Q00534 whole entry): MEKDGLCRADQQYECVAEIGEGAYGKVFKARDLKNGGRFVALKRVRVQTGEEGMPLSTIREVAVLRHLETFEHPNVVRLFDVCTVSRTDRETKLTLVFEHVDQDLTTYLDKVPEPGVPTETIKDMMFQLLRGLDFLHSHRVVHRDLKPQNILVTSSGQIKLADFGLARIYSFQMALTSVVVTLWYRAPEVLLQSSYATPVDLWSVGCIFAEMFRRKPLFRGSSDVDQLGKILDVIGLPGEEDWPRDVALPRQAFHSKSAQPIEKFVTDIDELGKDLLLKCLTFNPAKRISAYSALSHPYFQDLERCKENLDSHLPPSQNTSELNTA
# Chain of CDK6/Cyclin D3 (P30281 whole entry partner): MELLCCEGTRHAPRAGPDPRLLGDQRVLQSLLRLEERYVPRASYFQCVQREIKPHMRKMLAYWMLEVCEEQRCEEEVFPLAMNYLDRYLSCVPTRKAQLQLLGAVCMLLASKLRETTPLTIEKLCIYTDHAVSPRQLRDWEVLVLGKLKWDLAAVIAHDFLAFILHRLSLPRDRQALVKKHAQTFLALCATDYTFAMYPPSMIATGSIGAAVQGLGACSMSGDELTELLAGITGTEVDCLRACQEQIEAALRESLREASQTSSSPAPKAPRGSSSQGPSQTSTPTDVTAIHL
compound,measurement,setting,value
"CN1Cc2ccc(Nc3ncc4cc(C(F)F)cc(N5CC6(C5)CN(S(C)(=O)=O)C6)c4n3)cc2C1 [Example 58, 6-(difluoromethyl)-N-(2-methylisoindolin-5-yl)-8-(6-(methylsulfonyl)-2,6-diazaspiro[3.3]heptan-2-yl)quinazolin-2-amine]",IC50,CDK1/Cyclin B1,500 to 2000 nM
same,IC50,[1],< 200 nM
same,IC50,CDK4/Cyclin D1,< 200 nM
same,IC50,CDK6/Cyclin D3,< 200 nM
same,IC50,"MCF-7 cells; Homo sapiens, MCF7, 144 h",500 to 2000 nM
same,IC50,"OVCAR-3 cells; Homo sapiens, 144 h",500 to 2000 nM
"CN1CC(n2cc(Nc3ncc4cc(C(F)F)cc(N5CC6(CN(C)C6)C5)c4n3)cn2)C1 [Example 59, 6-(difluoromethyl)-8-(6-6-methyl-2,6-diazaspiro[3.3]heptan-2-yl)-N-(1-(1-methylazetidin-3-yl)-1H-pyrazol-4-yl)quinazolin-2-amine]",IC50,CDK1/Cyclin B1,> 2000 nM
same,IC50,[1],500 to 2000 nM
same,IC50,CDK4/Cyclin D1,200 to 500 nM
same,IC50,CDK6/Cyclin D3,500 to 2000 nM
same,IC50,MCF-7 cells,> 2000 nM
same,IC50,OVCAR-3 cells,> 2000 nM
"CN1CC2(CC(n3cc(Nc4ncc5cc(C(F)F)cc(N6CCC(C#N)(C7CC7)C6)c5n4)cn3)C2)C1 (stereo not drawn) [Example 60, 3-cyclopropyl-1-(6-(difluoromethyl)-2-((1-(2-methyl-2-azaspiro[3.3]heptan-6-yl)-1H-pyrazol-4-yl)amino)quinazolin-8-yl)pyrrolidine-3-carbonitrile]",IC50,CDK1/Cyclin B1,500 to 2000 nM
same,IC50,[1],200 to 500 nM
same,IC50,CDK4/Cyclin D1,< 200 nM
same,IC50,CDK6/Cyclin D3,< 200 nM
same,IC50,"MCF-7 cells; Homo sapiens, MCF7, 144 h",500 to 2000 nM
same,IC50,"OVCAR-3 cells; Homo sapiens, 144 h",500 to 2000 nM
"CN1Cc2cc(F)c(Nc3ncc4cc(C(F)F)cc(N5CC6(CNC6)C5)c4n3)cc2C1 [Example 61, 6-(difluoromethyl)-N-(6-fluoro-2-methylisoindolin-5-yl)-8-(2,6-diazaspiro[3.3]heptan-2-yl)quinazolin-2-amine]",IC50,CDK1/Cyclin B1,500 to 2000 nM
same,IC50,[1],< 200 nM
same,IC50,CDK4/Cyclin D1,200 to 500 nM
same,IC50,CDK6/Cyclin D3,500 to 2000 nM
same,IC50,"MCF-7 cells; Homo sapiens, MCF7, 144 h",> 2000 nM
same,IC50,"OVCAR-3 cells; Homo sapiens, 144 h",> 2000 nM
"CN1CC2(CCN(c3cc(C(F)F)cc4cnc(NC5CCN(S(C)(=O)=O)CC5)nc34)C2)C1 [Example 62, 6-(difluoromethyl)-8-(2-methyl-2,6-diazaspiro[3.4]octan-6-yl)-N-(1-(methylsulfonyl)piperidin-4-yl)quinazolin-2-amine]",IC50,CDK1/Cyclin B1,200 to 500 nM
same,IC50,[1],< 200 nM
same,IC50,CDK4/Cyclin D1,< 200 nM
same,IC50,CDK6/Cyclin D3,< 200 nM
same,IC50,"MCF-7 cells; Homo sapiens, MCF7, 144 h",< 200 nM
same,IC50,"OVCAR-3 cells; Homo sapiens, 144 h",500 to 2000 nM
"CS(=O)(=O)N1CCC(Nc2ncc3cc(C(F)F)cc(N4CC5(CCNC5)C4)c3n2)CC1 [Example 63, 6-(difluoromethyl)-N-(1-(methylsulfonyl)piperidin-4-yl)-8-(2,6-diazaspiro[3.4]octan-2-yl)quinazolin-2-amine]",IC50,CDK1/Cyclin B1,< 200 nM
same,IC50,[1],< 200 nM
same,IC50,CDK4/Cyclin D1,< 200 nM
same,IC50,CDK6/Cyclin D3,< 200 nM
same,IC50,"MCF-7 cells; Homo sapiens, MCF7, 144 h",500 to 2000 nM
same,IC50,"OVCAR-3 cells; Homo sapiens, 144 h",500 to 2000 nM
"CN1CC2(CCN(c3cc(C(F)F)cc4cnc(NC5CCN(c6ncc(C7CC7)cn6)CC5)nc34)C2)C1 [Example 64, N-(1-(5-cyclopropylpyrimidin-2-yl)piperidin-4-yl)-6-(difluoromethyl)-8-(2-methyl-2,6-diazaspiro[3.4]octan-6-yl)quinazolin-2-amine]",IC50,CDK1/Cyclin B1,> 2000 nM
same,IC50,[1],500 to 2000 nM
same,IC50,CDK4/Cyclin D1,< 200 nM
same,IC50,CDK6/Cyclin D3,> 2000 nM
same,IC50,"MCF-7 cells; Homo sapiens, MCF7, 144 h",500 to 2000 nM
same,IC50,"OVCAR-3 cells; Homo sapiens, 144 h",> 2000 nM
"CN1Cc2ccc(Nc3ncc4cc(C(F)F)cc(N5CC6(C5)CN(C5CC5)C6)c4n3)cc2C1 [Example 65, 8-(6-cyclopropyl-2,6-diazaspiro[3.3]heptan-2-yl)-6-(difluoromethyl)-N-(2-methylisoindolin-5-yl)quinazolin-2-amine]",IC50,CDK1/Cyclin B1,> 2000 nM
same,IC50,[1],< 200 nM
same,IC50,CDK4/Cyclin D1,< 200 nM
same,IC50,CDK6/Cyclin D3,< 200 nM
same,IC50,"MCF-7 cells; Homo sapiens, MCF7, 144 h",500 to 2000 nM
same,IC50,"OVCAR-3 cells; Homo sapiens, 144 h",500 to 2000 nM
"CN1Cc2ccc(Nc3ncc4cc(C(F)F)cc(N5CCC6(CN(C)C6)C5)c4n3)cc2C1 [Example 66, 6-(difluoromethyl)-8-(2-methyl-2,6-diazaspiro[3.4]octan-6-yl)-N-(2-methylisoindolin-5-yl)quinazolin-2-amine]",IC50,CDK1/Cyclin B1,500 to 2000 nM
same,IC50,[1],< 200 nM
same,IC50,CDK4/Cyclin D1,< 200 nM
same,IC50,CDK6/Cyclin D3,< 200 nM
same,IC50,"MCF-7 cells; Homo sapiens, MCF7, 144 h",500 to 2000 nM
same,IC50,"OVCAR-3 cells; Homo sapiens, 144 h",500 to 2000 nM
